# Data as given in patent US20060058320A1, “[1,2,4] Triazolo[1,5-c]pyrimidine derivatives” (KYOWA HAKKO KOGYO CO., LTD., priority 2002, published 2006).
# Where a name gives a salt, the structure may show the parent alone. Read-outs that look alike come from different tables or passages of the source.
# Legend:
# adenosine A2A receptor = target: T1, adenosine A2A receptor (Rattus norvegicus, UniProt P30543); assay: Adenosine A2A receptor binding test (3H-CGS 21680 binding); settings: read-out: A2A Receptor inhibition rate (%) at 10^−7 mol/L
# T1 construct: from tissue; host or cells: rat corpus striatum membrane preparation
# T1 sequence (P30543 whole entry): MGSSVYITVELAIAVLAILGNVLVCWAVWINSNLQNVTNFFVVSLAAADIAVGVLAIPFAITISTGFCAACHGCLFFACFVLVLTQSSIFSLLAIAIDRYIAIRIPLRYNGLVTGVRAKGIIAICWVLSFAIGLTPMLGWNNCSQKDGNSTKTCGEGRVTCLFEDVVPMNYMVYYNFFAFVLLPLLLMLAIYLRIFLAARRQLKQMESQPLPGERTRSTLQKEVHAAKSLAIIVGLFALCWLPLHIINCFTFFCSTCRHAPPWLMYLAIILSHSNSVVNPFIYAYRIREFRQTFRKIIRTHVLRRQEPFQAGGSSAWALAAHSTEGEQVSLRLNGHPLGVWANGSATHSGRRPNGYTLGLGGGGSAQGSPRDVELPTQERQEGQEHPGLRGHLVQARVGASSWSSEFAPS
# Experimental: The test was carried out according to the method of Bruns et al. [Molecular Pharmacology, vol. 29, p.
# Rat corpus striatum was suspended in an ice-cold 50 mmol/L tris(hydroxymethyl)aminomethane hydrochloride (referred to as “Tris HCl” hereinafter) buffer (pH 7.7) using a Polytron homogenizer (produced by Kinematica Co.). The suspension was centrifuged (50,000×g, 10 minutes), and the resulting precipitate was again suspended in the same amount of a 50 mmol/L Tris HCl buffer, followed by centrifugation under the same conditions. The resulting finalprecipitate was again suspended in a 50 mmol/L-Tris HCl buffer [containing 10 mmol/L of magnesium chloride and 0.02 unit/mg tissue of adenosine deaminase (produced by Sigma Co.)] so that the tissue concentration was 5 mg (wet weight)/mL.
# The radioactivity on the filter was determined with a liquid scintillation counter (produced by Packard Instrument Co.).
# In the equation, X represents Amount of binding in the presence of a medicament, Y represents Amount of nonspecific binding, and Z represents Amount of total binding.
# [1] = test system: CGS 21680-induced catalepsy; assay: Activity on CGS 21680-induced catalepsy; format: in vivo, mice; settings: 10 mg/kg orally; for inhibition in vivo at 10 mg/kg: Mus musculus, po, from total score of test group and control group, read-out: Remission ratio (%); for Total score: total catalepsy score of 10 mice (maximum 50 points; 40 points or less = positive), one hour after administration
# Outline: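 Male ddY mice, 5 weeks old, ten per group, were dosed orally with compound at 10 mg/kg in 0.3% Tween 80 water, 30 min before CGS 21680 (10 μg/20 μL) was injected into the cerebral ventricle. Catalepsy was scored 1 h after compound dosing by placing forelimbs or hindlimbs on a 4.5 cm stand.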
# [2] = test compound 10^−7 mol/L, 3H-CGS 21680 binding, rat corpus striatum
SMILES,melting point,inhibition at 0.1 µM (adenosine A2A receptor),inhibition at 0.1 µM (adenosine A2A receptor; [2]),inhibition in vivo at 10 mg/kg [1],Total score [1]
"Nc1nc(-c2cccs2)cc2nc(-c3ccco3)nn12 [Compound 51, 5-Amino-2-(2-furyl)-7-(2-thienyl)[1,2,4]triazolo[1,5-c]-pyrimidine]",232.2 to 232.3 °C,68%,–,–,–
"Nc1nc(C(=O)c2ccccc2)cc2nc(-c3ccco3)nn12 [Compound 39, 5-Amino-7-benzoyl 2-(2-furyl)[1,2,4]triazolo[1,5-c]-pyrimidine]",229.2 to 229.7 °C,–,66%,–,–
"CC(=O)c1cc2nc(-c3ccco3)nn2c(N)n1 [Compound 38, 7-Acetyl-5-amino-2-(2-furyl)[1,2,4]triazolo[1,5-c]pyrimidine]",221.2 to 221.5 °C,–,84%,–,–
"Nc1nc(-c2ccc(CNCCc3ccccn3)cc2)cc2nc(-c3ccco3)nn12 [Compound 11, 5-Amino-2-(2-furyl)-7-{4-[2-(2-pyridyl)ethylaminomethyl]-phenyl}[1,2,4]triazolo[1,5-c]pyrimidine]",159.8 to 160.5 °C,–,53%,–,–
"Nc1nc(-c2ccccc2)cc2nc(-c3ccco3)nn12 [Compound 1, 5-Amino-2-(2-furyl)-7-phenyl[1,2,4]triazolo[1,5-c]pyrimidine]",218.5 to 219 °C,–,65%,–,–
"CCCCc1cc2nc(-c3ccco3)nn2c(N)n1 [Compound 64, 5-Amino-7-butyl-2-(2-furyl)[1,2,4]triazolo[1,5-c]pyrimidine]",155 to 155.3 °C,–,81%,–,–
"Nc1nc(C=O)cc2nc(-c3ccco3)nn12 [Compound 41, 5-Amino-7-formyl-2-(2-furyl)[1,2,4]triazolo[1,5-c]pyrimidine]",270 °C (dec.),–,54%,–,–
"Nc1nc(C(=O)c2ccc(F)cc2)cc2nc(-c3ccco3)nn12 [Compound 40, 5-Amino-7-(4-fluorobenzoyl)-2-(2-furyl)[1,2,4]triazolo-[1,5-c]pyrimidine]",–,–,58%,94%,3

# Second part, led by results:
melting point,inhibition at 0.1 µM (adenosine A2A receptor),inhibition at 0.1 µM (adenosine A2A receptor; [2]),SMILES,inhibition in vivo at 10 mg/kg [1],Total score [1]
205 to 205.1 °C,–,82%,"Nc1nc(CCc2ccccc2)cc2nc(-c3ccco3)nn12 [Compound 66, 5-Amino-2-(2-furyl)-7-(2-phenylethyl)[1,2,4]triazolo[1,5-c]-pyrimidine]",–,–
207.2 to 207.8 °C,–,91%,"Nc1nc(CCO)cc2nc(-c3ccco3)nn12 [Compound 67, 5-Amino-2-(2-furyl)-7-(2-hydroxyethyl)[1,2,4]triazolo[1,5-c]pyrimidine]",–,–
–,–,51%,"COc1ccc(CN(C)C(=O)c2cc3nc(-c4ccco4)nn3c(N)n2)cn1 [Compound 131, 5-Amino-2-(2-furyl)[1,2,4]triazolo[1,5-c]pyrimidine-7-carboxylic acid [N-methyl-N-(6-methoxypyridin-3-ylmethyl)]-amide]",88%,6
–,–,74%,"CN(Cc1ccccc1Cl)C(=O)c1cc2nc(-c3ccco3)nn2c(N)n1 [Compound 122, 5-Amino-2-(2-furyl)[1,2,4]triazolo[1,5-c]pyrimidine-7-carboxylic acid [N-(2-chlorobenzyl)-N-methyl]amide monohydrochloride]",80%,10
